Data reported in patent US8729286B2, “Platinum compounds as treatment for cancers, and related methods, kits, and compositions” (Massachusetts Institute of Technology, priority 2012, dated 2014).
Entries after “also recorded” stand apart in the source; their conditions may differ.

Experiments:
[1] = Solution stability in water at 37° C. by NMR spectroscopy; assay type: physicochemical; conditions: for stability in water (1H NMR spectra): up to 25 days; for half-life of decomposition in water: NMR, first-order fit
Procedure: (§1) The stabilities of 1-5 in water and pH 7.4 phosphate buffered saline (PBS) at 37° C. were determined by NMR spectroscopy. […] Over the course of this reaction, the pH changed from 7.5 to 6.3. For 4, the rate of decomposition was quicker. […] The pH of this solution remained at 7.5 for the duration of the experiment.
(§2) The platinum complexes were dissolved in water or pH 7.4 PBS containing 10% D2O to a typical concentration of 1 mM. The solutions were transferred to NMR tubes and incubated in a 37° C. water bath. ^1H and ^19F NMR spectra were obtained at various type points during the incubation. A small amount of 1,4-dioxane (δ=3.75 ppm) was included in the samples as an internal standard for referencing the ^1H NMR spectra and a sealed capillary containing aqueous KF (δ=−120.46 ppm) was used for referencing ^19F NMR spectra. The methyl group of 2 in the ^1H NMR spectra was integrated relative to the 1,4-dioxane reference at different time points and used for kinetic analyses. The trifluoromethyl group of 4 in the ^19F NMR spectra was integrated relative to the KF standard at different time points and used for kinetic analyses. Under the assumption of first-order kinetics, approximate half-lives were determined by fitting a line to a plot of ln [Pt] versus time and using the integrated first-order rate law, ln [Pt]=−kt+[Pt]o and the relationship, t1/2=ln 2/k, where [Pt]c, is the starting concentration of complex, k is the pseudo first-order rate constant, t is time, and t1/2 is the half-life. Water suppression for ^1H NMR spectra was accomplished with presaturation. The pH of the solutions was measured at the beginning and end of the desired incubation time using a DG-111-SG glass electrode calibrated with standard buffers.

[2] = Solution stability in pH 7.4 PBS at 37° C. by NMR spectroscopy; assay type: physicochemical; conditions: for stability in pH 7.4 PBS (1H NMR spectra): up to 25 days; for half-life of decomposition in pH 7.4 PBS: NMR, first-order fit
Procedure: as §1
In pH 7.4 PBS, the rates of decomposition increased. The half-lives of 2 and 4 in this medium were 3.4 and 1.8 days, respectively. For 4, the final product was the same as that observed in the aquation in non-buffered water characterized by a ^19F NMR chemical shift at −76.6 ppm. […] Although the major final product was the same as that observed for the aquation in pure water (^1H δ=2.22 ppm), two other minor products were observed by ^1H NMR spectroscopy with CH3 proton resonances at 1.91 and 1.56 ppm.
as §2

[3] = test system: HeLa (human cervical cancer); assay: MTT cytotoxicity assay, HeLa; assay type: cell-based; conditions: continuous 72 h
Procedure: (§3) The cells were treated for a continuous 72 h period. The resulting 50% growth inhibitory concentration (IC50) values are summarized in Table 4 and graphically depicted in FIG. 5.
(§4) HeLa (human cervical cancer), A549 (human lung cancer), U2OS (osteosarcoma), MCF-7 (human breast cancer) cells were grown as adherent monolayers in growth medium consisting of Dulbecco's Modified Eagle Medium (DMEM) supplemented with 10% fetal bovine serum (FBS) and 1% penicillin/streptomycin. The cultures were grown in 25 cm^2 flasks in an incubator at 37° C. with a humidified atmosphere composed of 5% CO2.
(§5) Trypsinized cells were seeded into a 96-well plate at a cell density of 2000 cells/well in 200 μL of growth medium and incubated for 24 h. The medium was then removed and 200 μL new growth medium containing various concentrations of the platinum complexes was added. After 72 h, the medium was removed, 200 μL of a 0.8 mg/mL solution of MTT in DMEM was added, and the plate was incubated further for 4 h. The DMEM/MTT mixture was aspirated and 200 μL of DMSO with 10% pH 10.5 glycine buffer was added to dissolve the resulting purple formazan crystals. The absorbance of the plates was read at 555 nm. Absorbance values were normalized to the platinum-free control wells and plotted as [Pt] versus % viability. IC50 values were interpolated from the resulting curves. The reported IC50 values are the averages from at least three independent experiments, which each consisted of six replicates per concentration level.

A549 (human lung cancer) = assay: MTT cytotoxicity assay, A549; assay type: cell-based; conditions: continuous 72 h
Procedure: as §3, §4, §5

[4] = test system: U2OS (human osteosarcoma); assay: MTT cytotoxicity assay, U2OS; assay type: cell-based; conditions: continuous 72 h
Procedure: as §3, §4, §5

[5] = test system: MCF-7 (human breast cancer); assay: MTT cytotoxicity assay, MCF-7; assay type: cell-based; conditions: continuous 72 h
Procedure: as §3, §4, §5

HeLa cells = assay: Cellular uptake in HeLa cells by GFAAS; assay type: cell-based, human; conditions: 10 μM, 4 h exposure
Procedure: The cellular uptake scales with the lipophilicity of the compound in an exponential fashion (FIG. 6). The most lipophilic complex, 5, is taken up to the largest extent (520±80 ng Pt/10^6 cells), whereas the least lipophilic complex is taken up to the least extent (6±2 ng Pt/10^6 cells).
The total platinum uptake per cell was determined using slight modifications of a previously described protocol. In two 6-well plates, 3×10^5 cells per well were seeded in 3 wells with 2.5 mL of growth medium. In one of the plates, the additional 3 wells were filled with 2.5 mL of growth medium to act as blanks for non-specific platinum adsorption on the surface of the well. After incubating for 48 h, each well in the plate containing both cells and cell-free medium was treated with 0.278 mL of a 100-μM solution of the desired compound to give an exposure concentration of 10 μM. The cells and cell-free blanks were incubated with the Pt complex for 4 h. Meanwhile, the cells in the other plate were counted with trypan blue after detachment with trypsin in order to obtain the number of cells per well. After the 4 h incubation period, the growth medium was aspirated and all six wells were washed twice with 3 mL of pH 7.4 PBS and then treated with exactly 0.5 mL of hot (≈90° C.) concentrated nitric acid for 2 h. This nitric acid was analyzed by GFAAS to determine the total Pt content per well. The amount of Pt per cell was calculated by subtracting the average amount of Pt found in the blank wells from the average amount of Pt found in the cell-containing wells and normalizing to the average number of cells per well.

[6] = test system: nuclear DNA of HeLa cells; assay: Intracellular DNA platination in HeLa cells by GFAAS; assay type: cell-based, human; conditions: 100 μM for 4 h, then 16 h platinum-free medium
Procedure: Because platinum-based drugs exert their cytotoxic effects by the formation of DNA cross-links, the extent to which 1-5 bind to intracellular DNA was measured. Cells were treated with 100 μM of the platinum complexes for 4 h and then incubated for an additional 16 h in platinum-free growth medium. The nuclear DNA was isolated, and the quantity of bound platinum was measured by GFAAS.
Five million HeLa cells were seeded in a 100 mm Petri dish containing 9 mL of growth medium. On the following day, the cells were treated with the platinum complex at 100 μM concentration for 4 h. The growth medium was then replaced with platinum-free medium, and the cells were incubated for an additional 16 h. Cells, both floating and attached, were collected and combined. Trypsin (2 mL) was used to detach the cells. The combined cells were centrifuged for 5 min at 4° C., and the resulting cell pellet was washed twice with 3 mL of ice-cold PBS. DNAzol (1 mL, genomic DNA isolation reagent, MRC), containing 100 μg/mL RNase A, was used to lyse the cell pellet. DNA was precipitated with 0.5 mL of absolute ethanol, washed 2 times with 75% ethanol (0.75 mL), and redissolved in 200 μL of 8 mM NaOH. The DNA concentration was determined by UV-visible spectroscopy, and platinum was quantified by GFAAS. The reported values are the average of at least three independent experiments with the error reported as the standard deviation.

Solubility observations = assay type: physicochemical; conditions: for solubility in water: water (cold water wash)
[7] = test system: HeLa, A549, U2OS, and MCF-7 cell lines; assay: MTT cytotoxicity assay, summary over the four cell lines; assay type: cell-based, human; conditions: 72 h, mean of HeLa, read-out: average IC50 value in the four cell lines tested
Procedure: as §3, §4
as §5, with “The reported IC50 values are the averages from at least three independent experiments, which each consisted of six replicates per concentration level.” left out

[8] = test system: NCI-60 tumor cell panel (60 cell lines); assay: NCI-60 tumor cell panel screen, single dose; assay type: cell-based; conditions: 10 μM single dose, 48 h, SRB assay, relative to complex-free control
Procedure: (§6) Compound 4 was submitted to the NCI in July 2011 for single-dose testing in the NCI-60 tumor cell screen. These tests were carried out by the NCI using their established protocols.

[9] = test system: central nervous system (CNS) cancer cell lines; assay: NCI-60 tumor cell panel screen, CNS cancer cell lines; assay type: cell-based; conditions: 10 μM single dose, 48 h, SRB assay
Procedure: as §6

[10] = up 60 days; cited from earlier work

| HeLa Cellular Uptake (HeLa cells) [ng Pt/10^6 cells] | half-life of decomposition in water [1] [days] | half-life of decomposition in pH 7.4 PBS [2] [days] | solubility in aqueous and organic solvent (Solubility observations; aqueous and organic solvent) | solubility in water (Solubility observations) | SMILES | stability in water (1H NMR spectra) [1] | stability in pH 7.4 PBS (1H NMR spectra) [2] | IC50 [3] [µM] | IC50 (A549 (human lung cancer)) [µM] | IC50 [4] [µM] | IC50 [5] [µM] | Pt/DNA [6] [pmol/µg] | DNA platination [6] | IC50 [7] [µM] | average cell growth percentage of the 60 cell lines [8] [%] | average cell growth in CNS cancer cell lines [9] [%] | decomposition in water [10] |
| --- | --- | --- | --- | --- | --- | --- | --- | --- | --- | --- | --- | --- | --- | --- | --- | --- | --- |
| 6 ± 2 |  |  |  |  | CC1=CC(C)=[O+][Pt-2]([NH3+])([NH3+])[O]1.CC1=CC(C)=[O+][Pt-2]([NH3+])([NH3+])[O]1.O=S(=O)([O-])[O-] (stereo not shown) [Compound 1, [Pt(acac)(NH3)2](SO4)0.5] | no changes; also recorded: no sign of decomposition | no changes; also recorded: no sign of decomposition | 32 ± 5 | 28 ± 9 | 24 ± 2 | 76 ± 2 | 0.063 ± 0.012 |  |  |  |  |  |
| 29 ± 9 | 58 | 3.4 | low solubility |  | CC1=CC(C(F)(F)F)=[O+][Pt-2]([NH3+])([NH3+])[O]1.CC1=CC(C(F)(F)F)=[O+][Pt-2]([NH3+])([NH3+])[O]1.O=S(=O)([O-])[O-] (stereo not shown) [Compound 2, [Pt(tfac)(NH3)2](SO4)0.5] |  |  | 2.9 ± 0.7 | 2.2 ± 0.6 | 4.1 ± 0.8 | 15 | 0.30 ± 0.07 | ≈ 0.3 pmol Pt/μg DNA |  |  |  |  |
| 83 ± 8 |  |  |  | only sparingly soluble in water | CC1=CC(c2ccccc2)=[O+][Pt-2]([NH3+])([NH3+])[O]1.O=[N+]([O-])[O-] (stereo not shown) [Compound 3, [Pt(bzac)(NH3)2](NO3)] | no changes; also recorded: no sign of decomposition | no changes; also recorded: no sign of decomposition | 24 ± 4 | 7 ± 2 | 8 ± 2 | 33 ± 6 | 0.35 ± 0.24 | ≈ 0.3 pmol Pt/μg DNA |  |  |  |  |
| 160 ± 20 | 29 | 1.8 |  | only sparingly soluble in water | O=[N+]([O-])[O-].[NH3+][Pt-2]1([NH3+])[O]C(C(F)(F)F)=CC(c2ccccc2)=[O+]1 (stereo not shown) [Compound 4, [Pt(tfbz)(NH3)2](NO3)] |  |  | 3 ± 1 | 1.3 ± 0.2 | 1.6 ± 0.5 | 4.3 ± 0.3 | 14 ± 3 |  | 2.6 | 89.65 | 64.52 |  |
| 520±80 |  |  |  |  | O=[N+]([O-])[O-].[NH3+][Pt-2]1([NH3+])[O]C(c2ccccc2)=CC(c2ccccc2)=[O+]1 (stereo not shown) [Compound 5, [Pt(dbm)(NH3)2](NO3)] | no changes; also recorded: no sign of decomposition | no changes; also recorded: no sign of decomposition | 6.7 ± 0.7 | 1.3 ± 0.3 | 2.7 ± 0.7 | 3.1 ± 0.5 | 23 ± 10 |  |  |  |  |  |
|  |  |  |  |  | N.N.O=C([O-])C1(C(=O)[O-])CCC1.[Pt+2] [carboplatin] |  |  |  |  |  |  |  |  |  |  |  | no decomposition |

| SMILES | HeLa Cellular Uptake (HeLa cells) [ng Pt/10^6 cells] | half-life of decomposition in water [1] [days] | half-life of decomposition in pH 7.4 PBS [2] [days] | solubility in aqueous and organic solvent (Solubility observations; aqueous and organic solvent) | solubility in water (Solubility observations) | stability in water (1H NMR spectra) [1] | stability in pH 7.4 PBS (1H NMR spectra) [2] | IC50 [3] [µM] | IC50 (A549 (human lung cancer)) [µM] | IC50 [4] [µM] | IC50 [5] [µM] | Pt/DNA [6] [pmol/µg] | DNA platination [6] | IC50 [7] [µM] | average cell growth percentage of the 60 cell lines [8] [%] | average cell growth in CNS cancer cell lines [9] [%] | decomposition in water [10] |
| --- | --- | --- | --- | --- | --- | --- | --- | --- | --- | --- | --- | --- | --- | --- | --- | --- | --- |
| N.N.[Cl][Pt][Cl] [cisplatin, cis-diamminedichloroplatinum(II), reference compound] | 14 ± 2 |  |  |  |  |  |  | 2.1 ± 0.1 | 3.2 ± 0.6 | 5 ± 2 | 14 ± 3 | 1.58 ± 0.97 |  |  |  |  |  |
